Laboratory results as given in patent US20160058743A1, “METHODS FOR TREATING SENSORIMOTOR IMPAIRMENTS ASSOCIATED WITH CERTAIN TYPES OF STROKE USING AMINOPYRIDINES” (ACORDA THERAPEUTICS, INC., priority 2013, published 2016).
Several values for one entry are separate records, joined by “and”; a condition that tells them apart may be missing. Equal entries are not always repeated.

Tests used:
[1] = Body weight of MCAO rats; format: in vivo, Sprague Dawley rats; conditions: individual animals and group Mean
Text: Tables 16-18 show Cylinder Test Total Score (% of overall asymmetry) for each of Groups 1-3.

[2] = tested on: rats with middle cerebral artery occlusion (MCAO); assay: Cylinder test (overall asymmetry, total movement) after MCAO; format: in vivo, Sprague Dawley rats; design: Cylinder Test (Total Movement) / Cylinder Test (Total Movement), Mean: unit not given here; conditions: for Cylinder Test (Total Movement) / Cylinder Test Score (Overall Asymmetry (%)): individual animals and group Mean; for Cylinder Test (Total Movement), Mean: N 15
Text: In particular, the MCAO model in Sprague Dawley rats that was utilized in the experiments presented below mimics the conditions in human ischemic stroke. In this model, focal cerebral infarcts were made by permanent occlusion of the proximal right middle cerebral artery (MCA) using a modification of the method of Tamura et al. (No To […] 1986; 38:747-51). Briefly, the temporalis muscle was bisected and reflected through an incision made midway between the eye and the ear canal. The proximal MCA was exposed through a subtemporal craniectomy without removing the zygomatic arch and without transecting the facial nerve. […] In this experiment, Sprague Dawley rats were anesthetized, subjected to a surgery resulting in middle cerebral artery occlusion (MCAO), treated with and without 4-aminopyridine and behavioral assessments were performed as described below. Treatment was initiated at 4 weeks after stroke. Dosing and Treatment: Rats were treated in accordance with the dosing schedule shown in Tables 2A, 2B, 3 and FIG. 2, with each Phase being a two week period of time. A solution of 4-AP was used in this experiment. […] Vehicle control treatment was WFI delivered at 2 mL/kg by gastric gavage. […] Starting on day 30 after MCAO (Day 30, start of phase 1), the animals received gavage dosing of solutions (2 mL/kg) approximately 12 hours apart, for a total of five doses. The same schedule was repeated with different treatment on Day 44 and Day 58 for phase 2 and 3 of the study, respectively. Animals were not treated during the 10 days between phases (washout period). Treatment groups: Dosing was started 4 weeks after MCAO surgery. During these 4 weeks, weekly behavioral assessments, as defined below, were performed. […] Animals were given the first dose and behavioral assessments were performed starting 60 minutes after dosing. Animals then received the second dose that day at the appropriate time and b.i.d (preferably every 12 hours) thereafter for 2 more days (3 total days of dosing, 5 total doses). One hour after the 5th dose, animals were subjected to behavioral assessments as defined below. Following the final behavioral assessment, drug was withdrawn for 10 or 11 days, behavior was re-assessed, and then animals were re-challenged with a cross-over treatment (Phase 2 of Table 2B) as described in Tables 2A, 2B and 3, followed by the same behavioral testing and dosing regimen. This cross-over was repeated one more time as well (Phase 3 of Table 2B) (see FIG. 2). Cylinder Test: Evaluation was performed at Day -1 (pre-operation), Day 7, Day 21, Day 30, Day 32, Day 44, Day 46, Day 58, Day 60. This test assessed limb use asymmetry. Rats were placed in a transparent cylinder (20 cm in diameter and 30 cm in height) for 3-6 minutes. A mirror was placed behind the cylinder to determine forelimb movements when animal was turned away from the camera. […] Simultaneous use of both left and right forelimbs while contacting the wall during a full rear was also scored. A total number of 20 forelimb placings were counted during a trial. Data was expressed in terms of percent use of the non-impaired and or impaired forelimb relative to the total number of limb use observations for wall movements.

[3] = tested on: rats with middle cerebral artery occlusion (MCAO); assay: Infarct volume measurement (H&E staining); format: in vivo, Sprague Dawley rats; conditions: % of contralateral hemisphere; for Mean infarct volume (%): Example 2 crossover, Day 63
Experimental: Euthanasia and post-mortem processing: Infarct Volume analysis. After the last behavioral assessment, rats were anesthetized deeply with ketamine/xylazine (100 mg/kg ketamine, 10 mg/kg xylazine, i.p.) and perfused transcardially with normal saline (with heparin 2 unit/ml) followed by 4% paraformaldehyde or formalin on Day 63. Brains were harvested and processed for histological assessment. A subset of 10 brains per group was processed for infarct volume measurement (H&E staining).
Infarct measurement: Brains were embedded in paraffin and 5 micron thick coronal sections were cut using a microtome. Sections were stained with hematoxylin and eosin (H&E), using standard methods. Seven coronal sections (+4.7, +2.7, +0.7, −1.3, −3.3, −5.3 and −7.3, compared to bregma respectively) from each brain were photographed by a digital camera, and the infarct area on each slice was determined by NIH Image (Image J) using the “indirect method” (area of the intact contralateral [left] hemisphere−area of intact regions of the ipsilateral [right] hemisphere) to correct for brain edema. Infarct areas were then summed among slices and multiplied by slice thickness (the distance between sections) to give total infarct volume, which was expressed as a percentage of intact contralateral hemispheric volume.
Euthanasia and post-mortem processing: At day 70 after MCAO, rats were anesthetized as described in Example 2, above.
Infarct measurement: Infarct measurement was performed as described in Example 2, above.

[4] = tested on: rats with middle cerebral artery occlusion (MCAO); assay: Hindlimb placing test after MCAO; format: in vivo, Sprague Dawley rats
[5] = cited from earlier work

## Nc1ccncc1 [4-AP, 4-aminopyridine]
[1]; Group 1, D 1
  Weight: 291 g and 317 g (2×) and 306 g and 315 g and 323 g and 294 g
[1]; Group 1, D 7
  Weight: 328 g and 361 g and 359 g and 375 g and 369 g and 340 g and 366 g
[1]; Group 1, D 14
  Weight: 375 g and 403 g and 394 g and 421 g and 436 g and 382 g and 422 g
[1]; Group 1, D 21
  Weight: 399 g and 419 g and 416 g and 444 g and 494 g and 428 g and 469 g
[1]; Group 1, D 28
  Weight: 427 g and 451 g and 436 g and 484 g and 525 g and 457 g and 506 g
[1]; Group 1, D 30
  Weight: 425 g and 450 g and 435 g and 490 g and 544 g and 470 g and 512 g
[1]; Group 1, D 32
  Weight: 411 g and 441 g and 417 g and 470 g and 515 g and 454 g and 496 g
[1]; Group 1, D 42
  Weight: 448 g and 491 g and 449 g and 499 g and 565 g and 479 g and 543 g
[1]; Group 1, D 44
  Weight: 455 g and 501 g and 447 g and 511 g and 566 g and 480 g and 545 g and 454 g
[1]; Group 1, D 46
  Weight: 448 g and 490 g and 440 g and 494 g and 570 g and 488 g and 552 g
[1]; Group 1, D 56
  Weight: 476 g and 509 g and 452 g and 523 g and 612 g and 496 g and 576 g
[1]; Group 1, D 58
  Weight: 480 g and 520 g and 460 g and 530 g and 625 g and 512 g and 585 g
[1]; Group 1, D 60
  Weight: 475 g and 511 g and 456 g and 527 g and 615 g and 509 g and 587 g
[1]; Group 1, D −1
  Weight: 305 g and 317 g and 311 g and 332 g and 340 g and 324 g and 330 g and 313 g
[2]; Example 2, 0.63 or 2 mg/kg b.i.d. p.o., started 4 weeks post MCAO, dose-dependent, reversible
  Effect on body symmetry and coordination (cylinder test): effective to improve body symmetry and coordination
[2]; Group 1, D 7
  Cylinder Test (Total Movement): 131.00 and 130.00 and 77.00 and 57.00 (2×) and 139.00 and 35.00 and 15.00 and 32.00 and 14.00 and 63.00
[2]; Group 1, D 7, mean
  Cylinder Test (Total Movement): 58.07
[2]; Group 1, D 21
  Cylinder Test (Total Movement): 51.00 and 98.00 and 31.00 and 67.00 and 172.00 and 28.00 and 70.00 and 8.00 and 52.00 and 22.00 and 13.00
[2]; Group 1, D 21, mean
  Cylinder Test (Total Movement): 45.67
[2]; Group 1, D 30
  Cylinder Test (Total Movement): 0.00 (3×) and 75.00 and 2.00 and 10.00 (2×) and 6.00 and 13.00 and 12.00 and 4.00
[2]; Group 1, D 32
  Cylinder Test (Total Movement): 11.00 and 54.00 and 22.00 and 39.00 and 10.00 and 8.00 and 14.00 and 15.00 and 0.00 (2×) and 38.00
[2]; Group 1, D 44
  Cylinder Test (Total Movement): 28.00 and 93.00 and 48.00 and 57.00 and 47.00 and 9.00 and 123.00 and 11.00 and 5.00 and 66.00
[2]; Group 1, D 46
  Cylinder Test (Total Movement): 11.00 and 47.00 and 43.00 and 48.00 and 46.00 and 12.00 and 63.00 and 4.00 and 0.00 and 13.00
[2]; Group 1, D 58
  Cylinder Test (Total Movement): 14.00 and 137.00 and 18.00 and 81.00 and 53.00 and 16.00 and 74.00 and 0.00 and 11.00 and 26.00
[2]; Group 1, D 58, mean
  Cylinder Test (Total Movement): 36.47
[2]; Group 1, D 60
  Cylinder Test (Total Movement): 14.00 and 81.00 and 33.00 and 44.00 and 28.00 and 9.00 and 85.00 and 0.00 and 3.00 and 6.00
[2]; Group 1, D 60, mean
  Cylinder Test (Total Movement): 27.40
[2]; Group 1, D −1
  Cylinder Test (Total Movement): 64.00 and 152.00 and 81.00 and 52.00 and 100.00 and 53.00 and 47.00 and 14.00 and 31.00 and 23.00 and 49.00
[2]; Group 1, D −1, mean
  Cylinder Test (Total Movement): 63.07
[2]; Group 2, D 7
  Cylinder Test Score (Overall Asymmetry (%)): 55.47% and 28.85% and 25.00% and 51.56% and 50.00% and 58.33% and 42.36% and 28.57% and 43.14% and 24.32% and 14.29%
[2]; Group 2, D 7, mean
  Cylinder Test Score (Overall Asymmetry (%)): 38.14%
[2]; Group 2, D 21
  Cylinder Test Score (Overall Asymmetry (%)): 56.25% and −23.17% and 66.67% (2×) and 49.06% and 46.43% and 25.32% and 47.83% and 22.22% and 17.86% and −25.00%
[2]; Group 2, D 21, mean
  Cylinder Test Score (Overall Asymmetry (%)): 27.16%
[2]; Group 2, D 30
  Cylinder Test Score (Overall Asymmetry (%)): 51.72% and 0.00% and 4.17% and 56.64% and 27.59% and 75.00% and 20.99% and 27.50% and 16.67% and 20.00%
[2]; Group 2, D 32
  Cylinder Test Score (Overall Asymmetry (%)): 63.29% and 18.18% and 33.33% and 54.78% and 22.73% and 62.50% and 16.00% and 20.00% and 3.85% and 27.66% and −33.33%
[2]; Group 2, D 44
  Cylinder Test Score (Overall Asymmetry (%)): 58.33% and 14.04% and 38.96% and 52.53% and 11.54% and 54.93% and 7.14% and 18.18% and −27.08% and 17.65% and −20.00%
[2]; Group 2, D 44, mean
  Cylinder Test Score (Overall Asymmetry (%)): 14.61%
[2]; Group 2, D 46
  Cylinder Test Score (Overall Asymmetry (%)): 28.57% and 34.85% and 31.40% and 19.05% and 29.33% and 40.35% and 46.15% and 16.95% and 42.86% and 2.86%
[2]; Group 2, D 46, mean
  Cylinder Test Score (Overall Asymmetry (%)): 24.91%
[2]; Group 2, D 58
  Cylinder Test Score (Overall Asymmetry (%)): 29.17% and 50.00% and 66.67% and 54.76% and 30.00% and 88.00% and −7.69% and −16.67% and 62.50%
[2]; Group 2, D 60
  Cylinder Test Score (Overall Asymmetry (%)): 64.00% and 20.00% and 14.29% and 62.50% and 10.00% and 76.47% and 13.95% and 0.00% (2×) and −100.00%
[2]; Group 2, D −1
  Cylinder Test Score (Overall Asymmetry (%)): −15.58% and −1.96% and −24.39% and 2.38% and 0.00% and 1.65% and −2.20% and −7.58% and 21.05% and 8.45% and −2.70% and −5.66%
[2]; Group 2, D −1, mean
  Cylinder Test Score (Overall Asymmetry (%)): −4.05%
[2]; Group 3, D 44 after MCAO
  Cylinder Test (Total Movement), Mean: 19.13
[2]; Group 3, D 46 after MCAO
  Cylinder Test (Total Movement), Mean: 18.73
[2]; Group 3, D 58 after MCAO
  Cylinder Test (Total Movement), Mean: 32.33
[3]; Group 1 (H, L, V)
  Mean infarct volume (%): 45.0 (±1.8) %
[3]; Group 2 (L, V, H)
  Mean infarct volume (%): 41.4 (±2.3) %
[3]; Group 3 (V, H, L)
  Mean infarct volume (%): 39.0 (±3.3) %
[3]; Example 17, 4-AP 0.5, 1 and 2 mg/kg b.i.d. Days 56-65, brains at day 70 after MCAO
  Mean (SE) Infarct Volume (%): 40.0 (2.3) %
[4]; Example 17, 0.5 mg/kg b.i.d. p.o., Day 59 post-MCAO
  Hind limb placing score compared to vehicle: improved with the low dose but did not reach significance
[4]; Example 17, 1 mg/kg b.i.d. p.o., Day 62 post-MCAO, p<0.05
  Hind limb test compared to vehicle: measureable improvement
[4]; Example 17, 2 mg/kg b.i.d. p.o., Day 65 post-MCAO, p<0.001
  Hind limb function compared to vehicle: significant improvements
[5]; Hayes et al., J. Clin. Pharmacol. 2003
  half life: 1 to 1.5 h
[5]; typical, (94 ng/mL^−1)
  4-AP plasma concentrations obtained in clinical studies: < 1 µM
